# Data as given in paper PMC12294420, “Phytochemical Characterization, Bioactivities, and Nanoparticle-Based Topical Gel Formulation Development from Four Mitragyna speciosa Varieties” (Gels, 2025).
# Key:
# [1] = molecular target: T1, bovine testis hyaluronidase (Bos taurus, UniProt Q2YDK3); test: turbidimetric hyaluronic acid degradation assay, […] nm; assay type: biochemical; settings: read-out: % inhibition at 1 mg/mL
# T1 construct: gene SPAM1; commercial native testis preparation (Sigma-Aldrich)
# T1 sequence (Q2YDK3 36-553): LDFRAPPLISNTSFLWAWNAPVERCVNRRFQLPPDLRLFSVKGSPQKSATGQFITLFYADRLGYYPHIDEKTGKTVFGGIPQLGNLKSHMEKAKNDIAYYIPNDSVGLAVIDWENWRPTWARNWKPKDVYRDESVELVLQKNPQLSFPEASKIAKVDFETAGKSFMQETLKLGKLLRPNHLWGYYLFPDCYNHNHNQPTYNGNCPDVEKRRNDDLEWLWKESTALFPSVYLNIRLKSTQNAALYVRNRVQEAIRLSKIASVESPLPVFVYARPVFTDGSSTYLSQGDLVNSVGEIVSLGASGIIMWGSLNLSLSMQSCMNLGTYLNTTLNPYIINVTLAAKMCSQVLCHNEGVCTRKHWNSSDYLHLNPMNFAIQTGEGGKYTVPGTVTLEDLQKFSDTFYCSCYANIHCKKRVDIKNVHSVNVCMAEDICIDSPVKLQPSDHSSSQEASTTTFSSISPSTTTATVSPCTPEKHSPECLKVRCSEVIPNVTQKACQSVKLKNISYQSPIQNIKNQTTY
# [2] = molecular target: T2, porcine pancreatic elastase (Sus scrofa, UniProt P00772); test: Suc-Ala-Ala-Ala-pNA hydrolysis, […] nm kinetic; assay type: biochemical; settings: read-out: % inhibition at 1 mg/mL
# T2 construct: gene CELA1; commercial native pancreatic enzyme (Sigma-Aldrich)
# T2 sequence (P00772 27-266): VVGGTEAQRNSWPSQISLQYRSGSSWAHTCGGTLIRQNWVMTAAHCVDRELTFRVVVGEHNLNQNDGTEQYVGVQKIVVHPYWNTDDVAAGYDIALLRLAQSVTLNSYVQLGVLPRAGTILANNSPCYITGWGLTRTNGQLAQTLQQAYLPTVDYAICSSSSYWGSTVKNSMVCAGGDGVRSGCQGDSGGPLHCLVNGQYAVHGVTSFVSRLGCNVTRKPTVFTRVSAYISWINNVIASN
structure (smiles),measurement,setting,value
CC[C@@H]1CN2CCc3c([nH]c4cccc(OC)c34)[C@@H]2C[C@@H]1/C(=C\OC)C(=O)OC [mitragynine],inhibition at 1000 µg/mL,[1],83.3 ± 1.35%
same,inhibition at 1000 µg/mL,[2],54.5 ± 1.5%
